In patent US10799521B2, “Use of icaritin in preparing medicament for preventing or treating hematocytopenia” (Lunan Pharmaceutical Group Corporation, priority 2013, dated 2020):
Marks after values point to notes of the source that are not given here.

Columns and labels:
normal mice [1] = experiment: Bleeding time in normal mice (tail tip cut); format: in vivo, Kunming mice; design: unit not given here; conditions: 2 mg/kg by injection, 3 days, 1 h after last administration
Method: 100 Kunming mice were randomly divided into 5 groups, i.e. the blank control group (normal saline group), the icariin group (positive control group), the high-dose icaritin group, the medium-dose icaritin group, and the low-dose icaritin group. Each group was administered as follows. Blank control group: administered with the same volume of normal saline by subcutaneous injection; Icariin group: administered with 2 mg/kg of icariin by injection; High-dose icaritin group: administered with the injection of icaritin of Example 1 by subcutaneous injection at a dosage of 10 mg/kg; Medium-dose icaritin group: administered with the injection of icaritin of Example 1 by subcutaneous injection at a dosage of 5 mg/kg; Low-dose icaritin group: administered with the injection of icaritin of Example 1 by subcutaneous injection at a dosage of 1 mg/kg. Measurement of the bleeding time: The normal saline group (blank control group), the icariin group (positive control group), and the icaritin administration groups (high-, medium-, and low-dose groups) were designed as follows: 50 mice were selected, weighed, and randomly divided into 5 groups, with 10 mice in each group. The animals were administered consecutively for 3 days. At 1 h after the last administration, a filter paper was rolled to form a filter paper cartridge with a diameter similar to that of the mouse body, which was closed at one end. The mouse was allowed to climb into the cartridge. Then about 3 mm of tail tip of the mouse was cut with scissors. A stopwatch was started to record the time when the bleeding started. The tail tip of the mouse was point-contacted with a filter paper gently every 15 s until there was no blood or no blood can be seen.

normal mice [2] = experiment: Clotting time in normal mice (capillary method); format: in vivo, Kunming mice; design: unit not given here; conditions: 2 mg/kg by injection, 3 days, 1 h after last administration
Method: 100 Kunming mice were randomly divided into 5 groups, i.e. the blank control group (normal saline group), the icariin group (positive control group), the high-dose icaritin group, the medium-dose icaritin group, and the low-dose icaritin group. Each group was administered as follows.
Blank control group: administered with the same volume of normal saline by subcutaneous injection;
Icariin group: administered with 2 mg/kg of icariin by injection;
High-dose icaritin group: administered with the injection of icaritin of Example 1 by subcutaneous injection at a dosage of 10 mg/kg;
Medium-dose icaritin group: administered with the injection of icaritin of Example 1 by subcutaneous injection at a dosage of 5 mg/kg;
Low-dose icaritin group: administered with the injection of icaritin of Example 1 by subcutaneous injection at a dosage of 1 mg/kg.
Measurement of the clotting time: The normal saline group (blank control group), the icariin group (positive control group), and the icaritin administration groups (high-, medium-, and low-dose groups) were designed as follows: 50 mice were selected, weighed and randomly divided into 5 groups, with 10 mice in each group. The animals were administered consecutively for 3 days. At 1 h after the last administration, blood was sampled from the venous plexus by inserting a disposable 20 μl blood collection tube into the inner canthus of the mouse to collect 20 μl of blood. A small fragment of capillary was broken off every 15 s for checking the occurrence of clotting filaments. The time from the blood sampling to the occurrence of fibrous protein filaments (clotting time) was recorded, and the results were shown in Table 5.

chronic ITP model rats = experiment: Platelet count in chronic ITP model rats (anti-rat platelet serum); format: in vivo, Wistar rats; conditions: 2 mg/kg sc, 1 h after last administration
Method: Establishment of chronic ITP model: Wistar rats were selected to establish the model by injecting rabbit anti-rat platelet serum (APS). […] 50 Rats in which the model was successfully established were selected, weighed, and randomly divided into 5 groups, i.e. the model control group, the icariin group (positive control group), and the icaritin administration groups (high-, medium- and low-dose groups), with 10 rats in each group. The groups were administered with the following therapeutic agents, respectively.
The model control group: administered by subcutaneous injection with the same volume of normal saline;
(§1) The icariin group: administered by subcutaneous injection with 2 mg/kg of icariin;
(§2) The high-dose icaritin group: administered by subcutaneous injection with 10 mg/kg of the icaritin injection of Example 11;
(§3) The medium-dose icaritin group: administered by subcutaneous injection with 5 mg/kg of the icaritin injection of Example 11;
(§4) The low-dose icaritin group: administered by subcutaneous injection with 1 mg/kg of the icaritin injection of Example 11.
At 1 h after the last administration, blood was sampled from the venous plexus by inserting a disposable 20 μl blood collection tube into the inner canthus of the […].

[3] = system: active immune thrombocytopenia mice; experiment: Active immune thrombocytopenia in mice (platelets in peripheral blood); format: in vivo, Balb/C mice; conditions: 2 mg/kg (table), intragastric once a day, x ± s
Method: 72 Balb/C mice were selected, weighed, and randomly divided into […] administration groups, i.e. the normal group, the model control group, the icariin group (positive control group), and the icaritin administration groups (high-, medium-, and low-dose groups), with 12 mice in each group. […] On the second day after the model was established, each group was administered with the following therapeutic agents: The normal group: administered intragastrically with the same volume of normal saline; The model control group: administered intragastrically with the same volume of normal saline; The […]: […]; The high-dose icaritin group: […] Example 9; The medium-dose icaritin group: […] Example 9; The low-dose icaritin group: […] Each of the administration groups was administered once a day and fed normally. After establishing the model three times, each administration group was continued to be administered for one week. The mice were anesthetized, and blood was sampled to measure the number of platelets and determine the effect of icaritin on the number of platelets (PLT) in the peripheral blood.

[4] = system: model of thrombocytopenia induced by cyclophosphamide in mice; experiment: Thrombocytopenia induced by cyclophosphamide in mice (platelets in peripheral blood); format: in vivo, Balb/C mice; conditions: cyclophosphamide 50 mg/kg ip model mice; 2 mg/kg sc once a day, 3 weeks; x ± s
Method: 72 Balb/C mice were selected, weighed, and randomly divided into 6 groups, i.e. the normal group, the model control group, the icariin group (positive control group), and the icaritin administration groups (high-, medium-, and low-dose groups), with 12 mice in each group. […] One week before starting to establish the model, each group was administered with the following therapeutic agents:
The normal group: administered subcutaneously with the same volume of normal saline;
The model control group: administered subcutaneously with the same volume of normal saline;
as §1, §2, §3, §4
Each group was administered once a day and fed normally. After consecutive administration for 3 weeks, the mice were anesthetized, and blood was sampled to measure the number of platelets and determine the effect of icaritin on the number of platelets (PLT) in the peripheral blood.

[5] = system: tumor-bearing mice (mice ascites tumor s180 cells); experiment: Effect on chemotherapy-induced bone marrow suppression in tumor-bearing mice (routine blood test); format: in vivo, Kunming mice; conditions: after 10 days once daily, docetaxel 75 mg/m^2/d iv, Tegafur/Gimeracil/Oteracil capsules 222.2 mg/m^2/d intragastric, icaritin 10 mg/kg/d iv
Method: Mice ascites tumor s180 cells were conventionally incubated in 1640 culture medium, at 37° C., 5% CO2, and passaged once every two days in average. The cells in the logarithmic growth phase were prepared into a single-cell suspension having a density of 3.0×10^7 cells/ml with normal saline, which was injected into the abdominal cavities of mice under sterile conditions. Seven days after inoculation, significant swelling of the abdominal cavities of mice can be seen. As this time, the mice were executed by cervical vertebra luxation, put into a beaker containing 75% ethanol and soaked for 2-3 minutes. The sterilized mice were placed into an ultraclean bench, and the abdomens were exposed. The ascites was drawn with a sterile syringe and put into a sterile reagent bottle for further use. The above ascites was counted with trypan blue, diluted with normal saline to adjust to 2.0×10^7 cells/ml, and inoculated at the right armpit of the mice with 0.2 ml for each mouse. The inoculated mice were randomly divided into 6 groups, with 10 animals in each group and half male and half female. Group 1, the model control group: the test animals were intraperitoneally injected with0.9% normal saline (same for the following experiments); Group 2, the docetaxel group: 75 mg/m^2/d of docetaxel; Group 3, the Tegafur, Gimeracil and Oteracil Potassium Capsules group: 222.2 mg/m^2/d of Tegafur, Gimeracil and Oteracil Potassium Capsules; Group 4, the icaritin group: 10 mg/kg/d of the icaritin microemulsion formulation; Group 5, the D+I group (docetaxel+icaritin group): 75 mg/m^2/d of docetaxel+[…] of icaritin; Group 6, the T +I group (Tegafur, Gimeracil and Oteracil Potassium Capsules+icaritin group): 222.2 mg/m^2/d of Tegafur, Gimeracil and Oteracil Potassium Capsules+10 mg/kg/d of icaritin. Docetaxel and icaritin were administered by tail intravenous injection with an administration volume of 10 ml/kg for each. Tegafur, Gimeracil and Oteracil Potassium Capsules was intragastrically administered with an administration volume of 40 ml/kg. Each group was administered once a day for totally 10 days. During the test, the animals were observed every day for their food and water uptake, survival conditions and behaviors, and measured for their body weights every day. After the test was ended, the mice were anaesthetized and anatomized. Blood was collected from abdominal aorta for routine blood test, and the total number of white blood cells, the total number of platelets and the total number of neutrophils were determined.

[6] = design: species or system Kunming mice; conditions: mouse, in vivo
Method: Mice ascites tumor s180 cells were conventionally incubated in 1640 culture medium, at 37° C., 5% CO2, and passaged once every two days in average. The cells in the logarithmic growth phase were prepared into a single-cell suspension having a density of 3.0×10^7 cells/ml with normal saline, which was injected into the abdominal cavities of mice under sterile conditions. Seven days after inoculation, significant swelling of the abdominal cavities of mice can be seen. As this time, the mice were executed by cervical vertebra luxation, put into a beaker containing 75% ethanol and soaked for 2-3 minutes. The sterilized mice were placed into an ultraclean bench, and the abdomens were exposed. The ascites was drawn with a sterile syringe and put into a sterile reagent bottle for further use. The above ascites was counted with trypan blue, diluted with normal saline to adjust to 2.0×10^7 cells/ml, and inoculated at the right armpit of the mice with 0.2 ml for each mouse.
The inoculated mice were randomly divided into 6 groups, with 10 animals in each group and half male and half female.
Docetaxel and icaritin were administered by tail intravenous injection with an administration volume of 10 ml/kg for each. Tegafur, Gimeracil and Oteracil Potassium Capsules was intragastrically administered with an administration volume of 40 ml/kg. Each group was administered once a day for totally 10 days. During the test, the animals were observed every day for their food and water uptake, survival conditions and behaviors, and measured for their body weights every day. After the test was ended, the mice were anaesthetized and anatomized. Blood was collected from abdominal aorta for routine blood test, and the total number of white blood cells, the total number of platelets and the total number of neutrophils were determined.

Row | Compound | Bleeding Time (normal mice [1]) | Clotting Time (normal mice [2]) | Platelet count (chronic ITP model rats) | PLT [3] | PLT [4] | Neutrophils [5] | Platelets [5] | White blood cells [5] | Body weight Before Administration [6]
1 | COc1ccc(-c2oc3c(CC=C(C)C)c(O[C@@H]4O[C@H](CO)[C@@H](O)[C@H](O)[C@H]4O)cc(O)c3c(=O)c2O[C@@H]2O[C@@H](C)[C@H](O)[C@@H](O)[C@H]2O)cc1 [Icariin, reference compound] | 4.03 ± 0.45 | 4.28 ± 0.61 | 571.8 ± 60.6 ×10^9 | 850.6 ± 90.1** 10^9/L | 550.6 ± 90.1** 10^9/L | – | – | – | –
2 | CC(=O)O[C@@]12CO[C@@H]1C[C@H](O)[C@@]1(C)C(=O)[C@H](O)C3=C(C)[C@@H](OC(=O)[C@H](O)[C@@H](NC(=O)OC(C)(C)C)c4ccccc4)C[C@@](O)([C@@H](OC(=O)c4ccccc4)[C@H]21)C3(C)C [Docetaxel, reference compound] | – | – | – | – | – | 0.670 ± 0.12 10^9/L | 450.6 ± 30.5 10^9/L | 2.773 ± 0.46 10^9/L | 21.2 ± 1.8 g
3 | Tegafur, Gimeracil and Oteracil Potassium Capsules | – | – | – | – | – | – | – | – | 21.3 ± 2.3 g
